Measurements: patent US20240350421A1, “Cationic Polymeric Nanoparticles and Their Uses in Treating Diseases” (University of Connecticut, priority 2021, published 2024)

Test: Cell proliferation (trypan blue) assay in HeLa cells
Assay type: cell-based
Details: human, read-out: reduction in cell viability
Procedure: 200,000 PBMC cells were seeded in a plate (12 well) overnight and treated with 2 mg/mL blank F2 NPs and 150 μL of lipofectamine. After 24 h, cells were stained with trypan blue dye and total live cells were determined by cell counter (Bio-Rad, USA). For cytotoxicity assay in HeLa cells, 50,000 HeLa cells were seeded in plates (24 well) and treated with paclitaxel (PTX) F2 NPs for 24 h, and cell viability was measured by staining with trypan blue dye.

For CC(=O)O[C@H]1C(=O)[C@@]2(C)[C@H]([C@H](OC(=O)c3ccccc3)[C@]3(O)C[C@H](OC(=O)[C@H](O)[C@@H](NC(=O)c4ccccc4)c4ccccc4)C(C)=C1C3(C)C)[C@]1(OC(C)=O)CO[C@@H]1C[C@@H]2O [PTX suspension, paclitaxel], the cytotoxicity at 24 h was 17%.
